Where two headings read alike, the source gives them in different places. Where a SMILES comes first, the peptide text is derived from it. The star is where a group is joined. Cbz = O=C(OCc1ccccc1)*

Drawing on paper PMC8041284, “Tunable Methacrylamides for Covalent Ligand Directed Release Chemistry” (Journal of the American Chemical Society, 2021), this text covers inhibition for 71 molecules.

This assay has as its target BTK (Homo sapiens, UniProt Q06187). Nature of the assay: biochemical.
[1] abbreviates: read-out: BTK inhibition (%), 0.75 uM BTK, […] probe 3l, 15 min preincubation.

Chain of BTK (Q06187 402-655 limits assumed): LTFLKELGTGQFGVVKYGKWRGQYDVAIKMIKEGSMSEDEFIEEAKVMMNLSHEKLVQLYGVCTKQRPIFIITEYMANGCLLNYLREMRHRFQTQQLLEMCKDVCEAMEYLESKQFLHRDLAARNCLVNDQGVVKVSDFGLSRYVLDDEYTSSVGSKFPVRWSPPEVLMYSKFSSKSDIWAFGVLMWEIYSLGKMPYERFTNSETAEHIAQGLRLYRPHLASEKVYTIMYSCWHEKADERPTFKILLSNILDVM

Take `O=C(/C=C\n1cnc(-c2cc(C(F)(F)F)cc(C(F)(F)F)c2)n1)N1CC(F)(F)C1` [PCM-0095738]: the inhibition at 10 µM under setting [1] was -16.2%.
For the molecule `O=C(NS(=O)(=O)c1ccc(Br)s1)c1ccc(Cl)cc1Cl` [PCM-0095739], the inhibition at 10 µM under setting [1] is -10%.
`CN(C)C(=O)Nc1cccc(-c2ccc(N(C)C)cc2)c1` [PCM-0095740]: the inhibition at 10 µM under setting [1] was -3.1%.
In the case of `Cc1cc(NC(=O)c2cccc(NC(=O)/C=C/CN(C)C)c2)ccc1Nc1nccc(-c2cccnc2)n1` [PCM-0095741], under setting [1], the inhibition at 10 µM was determined as 9.7%.
In the case of `O=S(=O)(CC1CS1)c1ccc(Oc2ccccc2)cc1` (centres unmarked) [PCM-0095742], under setting [1], the inhibition at 10 µM came to 20.8%.
For `Cc1cc(-c2ccc(CC(=O)Nc3ccc(-c4cccnc4)cc3)cc2)ccn1` [PCM-0095743], under setting [1], the inhibition at 10 µM was -11.6%.
Still for that read-out and setting: the result for `CCOC(=O)c1[nH]c2cc(Cl)ccc2c1C(C(=O)NC(C)(C)C)N(C=O)Cc1ccc(Cl)cc1` (centres unmarked) [PCM-0095744] reads 13.1%.
Still for that read-out and setting: the value for `Cc1cc(Nc2ncc(Cl)c(Nc3ccccc3S(=O)(=O)C(C)C)n2)c(OC(C)C)cc1C1CCNCC1` [PCM-0095745] was 69.7%.
In the case of `CCN(CC)CCN(Cc1ccc(-c2ccc(C(F)(F)F)cc2)cc1)C(=O)Cn1c(SCc2ccc(F)cc2)nc(=O)c2c1CCC2` [PCM-0095746], the inhibition at 10 µM under setting [1] is -30.1%.
As for `Cc1sc2c(c1C)C(c1ccc(Cl)cc1)=N[C@@H](CC(=O)OC(C)(C)C)c1nnc(C)n1-2` [PCM-0095747], the inhibition at 10 µM (read-out: BTK inhibition (%)) came to 10.8%.
With `CNCc1ccc(C)c(NC(=O)c2ccc(Nc3nc(-c4ccccc4)c4ccccc4n3)cc2)c1` [PCM-0095748], under setting [1], the inhibition at 10 µM worked out at 79.5%.
Consider `CC(C)(Cc1ccc2ccccc2c1)NC[C@@H](O)COc1cccc(Cl)c1C#N` [PCM-0095749], for which, under setting [1], the inhibition at 10 µM was -11.7%.
With `COc1cc(-n2c(=S)[nH]c3ccccc3c2=O)c(Cl)cc1Cl` [PCM-0095750], the inhibition at 10 µM under setting [1] was 29.3%.
For the molecule `Cc1c(F)cc(C(=O)NC2CC2)cc1-c1ccc(C(=O)NCC(C)(C)C)cn1` [PCM-0095751], the inhibition at 10 µM under setting [1] is -14.5%.
On to `O=C(/C=C\n1cnc(-c2cc(C(F)(F)F)cc(C(F)(F)F)c2)n1)NNc1cnccn1` [PCM-0095752], for which, under setting [1], the inhibition at 10 µM came to 6.9%.
`CNc1nc(Nc2cn(C(C)(C)C#N)nc2C)ncc1C(F)(F)F` [PCM-0095754]: under setting [1], the inhibition at 10 µM was 7.6%.
As for `CCCCCCCCCCCCCCCCn1cc[n+](Cc2ccccc2)c1C` [PCM-0095755], the inhibition at 10 µM under setting [1] was -51.7%.
On to `Cc1cc(C)c(-c2csc(NC(=O)c3ccccc3)n2)c(C)c1` [PCM-0095756], for which the inhibition at 10 µM under setting [1] was found to be 41.7%.
On to `c1cn2cc(-c3ccc4cn[nH]c4c3)nc(Nc3ccc(N4CCOCC4)cc3)c2n1` [PCM-0095758], for which, under setting [1], the inhibition at 10 µM is 33.8%.
With `O=C(O)c1ccc(C=C2SC(=S)N(c3cccc(C(F)(F)F)c3)C2=O)cc1` [PCM-0095759], the inhibition at 10 µM under setting [1] came out at 54.1%.
Regarding `CCCc1cc(C)[nH]c(=O)c1CNC(=O)c1cc(-c2ccc(N3CCN(C(C)C)CC3)nc2)cc2c1cnn2C(C)C` [PCM-0095761], under setting [1], the inhibition at 10 µM was -29.3%.
Turning to `CN(CC(=O)N(Cc1ccc(C2CCCCC2)cc1)c1ccc(C(=O)O)cc1)S(=O)(=O)c1c(F)c(F)c(F)c(F)c1F` [PCM-0095763], under setting [1], the inhibition at 10 µM was determined as 68.7%.
On the same count and under the same terms, the value for `O=C(O)c1ccc(N2C(=O)/C(=C/c3ccc(-c4ccc([N+](=O)[O-])cc4)o3)C=C2c2ccccc2)cc1` [PCM-0095764] was 98.1%.
The same measure, in the same setting: the value for `O=C(/C=C/c1ccccc1)NC(NC(=S)Nc1ccc(Cl)cc1)C(Cl)(Cl)Cl` (centres unmarked) [PCM-0095765] was 34%.
On to `Cc1[nH]c2ccccc2c1CCNC(=O)c1cccs1` [PCM-0095767], for which the inhibition at 10 µM under setting [1] was -6.9%.
On to `CNc1nc(-c2ccc3c(N)n[nH]c3c2)cc(N2C[C@@H](C(=O)NC3CCCCC3)CC[C@H]2C)n1` [PCM-0095768], for which the inhibition at 10 µM under setting [1] was determined as 24.1%.
For the molecule `CCOc1cc(N2CCC(O)CC2)ccc1Nc1ncc2c(n1)N(C)c1ccccc1C(=O)N2C` [PCM-0095769], the inhibition at 10 µM under setting [1] was -6.2%.
Still for that read-out and setting: the value for `Cc1ccc(S(=O)(=O)c2ccc([N+](=O)[O-])o2)cc1` [PCM-0095771] was -10.8%; that for `CCC[C@H](Nc1nc(-c2ccc(NC(=O)NCC)c(OC)c2)ncc1C)c1cccnc1` [PCM-0095772] was -14%.
As to `Nc1cc(F)ccc1NC(=O)/C=C/c1cnn(C/C=C/c2ccccc2)c1` [PCM-0095774], the inhibition at 10 µM under setting [1] worked out at 9.3%.
As to `O=C(c1ccccc1)c1ccc2nc(NC(=O)c3csc(C4CCN(c5ncnc6ccsc56)CC4)n3)[nH]c2c1` [PCM-0095775], under setting [1], the inhibition at 10 µM turned out to be 20.1%.
`NC(=O)CCCSc1nc(N)nc(-c2c(Cl)cc3c4c(cccc24)COC3)n1` [PCM-0095776]: under setting [1], the inhibition at 10 µM is -2.3%.
In the case of `COc1cc(Br)c(Nc2nc(-c3c(C)nc4ncccn34)cs2)c(Br)c1` [PCM-0095777], the inhibition at 10 µM (read-out: BTK inhibition (%)) was found to be 34%.
Take `O=C(O)c1cc2cccc([N+](=O)[O-])c2[nH]1` [PCM-0095778]: the inhibition at 10 µM under setting [1] was 0.8%.
The same measure, in the same setting: the value for `C[C@@H]1COCCN1c1cc(C2(S(C)(=O)=O)CC2)nc(-c2cccc3[nH]ccc23)n1` [PCM-0095779] was -7.6%; that for `CC1(C)C=C(CN2C/C(=C\c3ccc(F)cc3)C(=O)/C(=C/c3ccc(F)cc3)C2)C(C)(C)N1O` [PCM-0095780] was 9.3%.
The same measure, in the same setting: the value for `O=C(c1ccc(C(=O)N2CCC(N3CCCC3)CC2)c(Nc2ccccc2)c1)N1CCC(N2CCCC2)CC1` [PCM-0095781] was -10.8%.
`Cc1cnc(-c2ccccc2C(C)C)nc1NCc1ccc(-n2ccnn2)cc1` [PCM-0095782]: the inhibition at 10 µM under setting [1] is 3.9%.
Regarding `Cc1ccccc1CN1C2=NCCN2C(=O)C2=C1CCN(Cc1ccccc1)C2` [PCM-0095783], under setting [1], the inhibition at 10 µM is -19.3%.
With `c1cc(-c2cnn3cc(-c4ccc(N5CCNCC5)cc4)cnc23)c2cccnc2c1` [PCM-0095784], under setting [1], the inhibition at 10 µM was determined as 3.9%.
As for `Cn1cc(-c2cnn3c(N)c(Br)c([C@@H]4CCCNC4)nc23)cn1` [PCM-0095786], under setting [1], the inhibition at 10 µM is -6.8%.
Take `C=CC(=O)Nc1cccc(Nc2nc(Nc3ccc(OCCOC)cc3)ncc2F)c1` [PCM-0095787]: under setting [1], the inhibition at 10 µM was 90.3%.
Regarding `N[C@H]1C[C@@H]1c1ccc(-c2cccc(O)c2)cc1` [PCM-0095788], the inhibition at 10 µM under setting [1] was -1.5%.
On to `Cc1cc(OCc2nnc(SC3CCCC3)n2-c2cccnc2)ccc1-c1ccc(S(C)(=O)=O)cc1` [PCM-0095789], for which the inhibition at 10 µM under setting [1] was found to be 0.8%.
For the molecule `Cc1ccc(NCCCc2ccccc2)c(N)c1` [PCM-0095790], the inhibition at 10 µM under setting [1] worked out at 17%.
Take `O=C(c1cncc(Br)c1)N1CCC(N2CCCC2)CC1` [PCM-0095791]: under setting [1], the inhibition at 10 µM amounted to 5.4%.
For `Nc1nonc1C(=Nc1ccc(F)c(Cl)c1)NO` [PCM-0095795], under setting [1], the inhibition at 10 µM is -3.1%.
On to `CCN(c1cc(-c2ccc(CN3CCOCC3)cc2)cc(C(=O)NCc2c(C)cc(C)[nH]c2=O)c1C)C1CCOCC1` [PCM-0095796], for which, under setting [1], the inhibition at 10 µM was -2.6%.
For `C/C(=N\NC(=S)N1CCC1)c1ccccn1` [PCM-0095797], the inhibition at 10 µM under setting [1] is -13.9%.
For `O=C(Nc1cccc(C(F)(F)F)c1)Nc1cc(S(=O)(=O)NC2CC2)ccc1-c1ccsc1` [PCM-0095800], under setting [1], the inhibition at 10 µM amounted to 27%.
For the molecule `Cc1cc(C)nc(NS(=O)(=O)c2ccc(NC(=S)NC(=O)COc3ccc(Br)cc3Cl)cc2)n1` [PCM-0095801], under setting [1], the inhibition at 10 µM came out at 59.5%.
In the case of `C#CC[C@H](c1nc2cc(Cl)ccc2c(=O)n1Nc1ccccc1)N(CCCN)C(=O)c1cccc(Cl)c1F` [PCM-0095802], the inhibition at 10 µM under setting [1] worked out at 52.5%.
Turning to `COc1ccccc1-c1cc(Nc2cccc(CS(N)(=O)=O)c2)ncn1` [PCM-0095804], the inhibition at 10 µM under setting [1] amounted to 2.8%.
The same measure, in the same setting: the value for `N#Cc1c(NC(=O)c2cccc3ccccc23)sc2c1CCCC2` [PCM-0095805] was 16.6%.
As for `CCOC(=O)c1ccc(N2NC(=O)/C(=C/c3ccc([N+](=O)[O-])o3)C2=O)cc1` [PCM-0095807], the inhibition at 10 µM under setting [1] amounted to 64.9%.
`O=C(NNc1ccccc1)c1ccncc1` [PCM-0095808]: the inhibition at 10 µM under setting [1] was -11.6%.
As for `CC(C)C[C@@H](C=O)NC(=O)[C@H](CC(C)C)NC(=O)[C@H](CC(C)C)NC(=O)OCc1ccccc1` [PCM-0095809] (Cbz-Leu-Leu-Leu-aldehyde), under setting [1], the inhibition at 10 µM came out at 5.4%.
As for `Nc1ncnc2c1C(=O)N(c1ccc(C3CCC(CC(=O)O)CC3)cc1)CCO2` (centres unmarked) [PCM-0095810], under setting [1], the inhibition at 10 µM worked out at 3.1%.
In the case of `CCOc1ccccc1-n1c(C(C)N2CCN(C(=O)COc3ccc(Cl)cc3)CC2)nc2ccccc2c1=O` (centres unmarked) [PCM-0095811], the inhibition at 10 µM under setting [1] amounted to 15.4%.
Regarding `Cn1cc(-c2ccc3c(c2)CCN3C(=O)Cc2cccc(C(F)(F)F)c2)c2c(N)ncnc21` [PCM-0095812], under setting [1], the inhibition at 10 µM came out at 40%.
`COc1cc(-c2cc(-c3cccc(O)c3)cnc2N)cc(OC)c1OC` [PCM-0095813]: under setting [1], the inhibition at 10 µM was found to be 29.3%.
Turning to `N[C@H]1C[C@@H]1c1ccccc1` [PCM-0095814], under setting [1], the inhibition at 10 µM was -6.2%.
For the molecule `CC1=C(C(=O)OC2CCCCC2)C(c2ccc([N+](=O)[O-])cc2)C2=C(CC(C)(C)CC2=O)N1` (centres unmarked) [PCM-0095815], under setting [1], the inhibition at 10 µM was determined as 46.3%.
As to `NC(=S)N/N=C/c1ncccc1N` [PCM-0095816], the inhibition at 10 µM under setting [1] was -1.5%.
Take `O=S(=O)(c1ccccc1)N(CC(F)(F)F)c1ccc(C(O)(C(F)(F)F)C(F)(F)F)cc1` [PCM-0095817]: the inhibition at 10 µM under setting [1] was found to be 27%.
For the molecule `Cn1c(=O)cc(N2CCC[C@@H](N)C2)n(Cc2cc(F)ccc2C#N)c1=O` [PCM-0095818], the inhibition at 10 µM under setting [1] turned out to be 15.4%.
Still for that read-out and setting: the value for `Cc1nc(Nc2n[nH]c3c2CN(C(=O)N[C@H](CN(C)C)c2ccccc2)C3(C)C)c2sccc2n1` [PCM-0095819] was 72.4%; that for `N#CSc1cc(SC#N)c(N)nc1N` [PCM-0095820] was 112%.
Take `O=C(O)CCn1c2c(c3ccccc31)C[C@H](NS(=O)(=O)c1ccc(F)cc1)CC2` [PCM-0101878]: under setting [1], the inhibition at 10 µM was -15.4%.
Same read-out and setting: the value for `Nc1ncnc2c1ncn2[C@@H]1O[C@H](CO)C[C@H]1O` [PCM-0101885] was 42%; that for `C/C(=C\C(=O)OCCCCCCCCC(=O)O)C[C@@H]1OC[C@H](C[C@@H]2O[C@H]2[C@@H](C)[C@H](C)O)[C@@H](O)[C@H]1O` [PCM-0101899] was 7%.
